Data taken from US12655116B2, “Substituted isophthalic acid diamides” (Bayer Aktiengesellschaft, priority 2020, dated 2026).

How the values were obtained:
ECHCG [1] = assay: Post-emergence herbicidal action against ECHCG; assay type: in vivo, Echinochloa crus-galli; conditions: Echinochloa crus-galli, 504 h
Summary of the method: (§1)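 Herbicidal action is a visual percentage rating (0% = as untreated control, 100% = plants dead) made roughly 3 weeks after treatment. Plants were grown in sandy loam in the greenhouse and treated at the one-leaf stage, 2 to 3 weeks post-sowing. Treatment was a foliar spray of wettable-powder or emulsion-concentrate formulations at 600 to 800 l/ha water plus 0.2% wetting agent.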

VERPE [2] = assay: Pre-emergence herbicidal action against VERPE; assay type: in vivo, Veronica persica; conditions: Veronica persica, 504 h, dosage 80 g/ha
Summary of the method: (§2)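 Sandy loam pots, seeds covered with soil, then surface-treated with WP or EC formulations at 600–800 l/ha water plus 0.2% wetting agent. Greenhouse, 3 weeks. Percent damage vs untreated controls.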

POLCO = assay: Pre-emergence herbicidal action against POLCO; assay type: in vivo, Polygonum convolvulus; conditions: Fallopia convolvulus, 504 h, dosage 80 g/ha
Summary of the method: as §2

DIGSA [3] = assay: Post-emergence herbicidal action against DIGSA; assay type: in vivo, Digitaria sanguinalis; conditions: Digitaria sanguinalis, 504 h
Summary of the method: as §1

SETVI [4] = assay: Pre-emergence herbicidal action against SETVI; assay type: in vivo, Setaria viridis; conditions: Setaria viridis, 504 h, dosage 80 g/ha
Summary of the method: as §2

STEME [5] = assay: Pre-emergence herbicidal action against STEME; assay type: in vivo, Stellaria media; conditions: Stellaria media, 504 h
Summary of the method: as §2

PHBPU [6] = assay: Pre-emergence herbicidal action against PHBPU; assay type: in vivo, Pharbitis purpurea; conditions: Ipomoea purpurea, 504 h, dosage 80 g/ha
Summary of the method: as §2

ALOMY [7] = assay: Pre-emergence herbicidal action against ALOMY; assay type: in vivo, Alopecurus myosuroides; conditions: Alopecurus myosuroides, 504 h; 80 g/ha, pre-emergence, scored visually after 3 weeks vs untreated controls (100% = plants have died, 0% = like control plants)
Summary of the method: as §2

ALOMY [8] = assay: Post-emergence herbicidal action against ALOMY; assay type: in vivo, Alopecurus myosuroides; conditions: Alopecurus myosuroides, 504 h, dosage 20 g/ha, visual assessment about 3 weeks after treatment vs untreated controls
Summary of the method: as §1

SETVI [9] = assay: Post-emergence herbicidal action against SETVI; assay type: in vivo, Setaria viridis; conditions: Setaria viridis, 504 h, dosage 20 g/ha
Summary of the method: as §1

LOLRI = assay: Pre-emergence herbicidal action against LOLRI; assay type: in vivo, Lolium rigidum; conditions: Lolium rigidum, 504 h, 80 g/ha
Summary of the method: as §2

DIGSA [10] = assay: Pre-emergence herbicidal action against DIGSA; assay type: in vivo, Digitaria sanguinalis; conditions: Digitaria sanguinalis, 504 h
Summary of the method: as §2

VIOTR [11] = assay: Post-emergence herbicidal action against VIOTR; assay type: in vivo, Viola tricolor; conditions: Viola tricolor, 504 h
Summary of the method: as §1

AMARE [12] = assay: Post-emergence herbicidal action against AMARE; assay type: in vivo, Amaranthus retroflexus; conditions: Amaranthus retroflexus, 504 h, 20 g/ha, visual assessment about 3 weeks after treatment, 100% = plants have died, 0% = like control plants
Summary of the method: as §1

ABUTH [13] = assay: Pre-emergence herbicidal action against ABUTH; assay type: in vivo, Abutilon theophrasti; conditions: Abutilon theophrasti, 504 h
Summary of the method: as §2

AVEFA [14] = assay: Post-emergence herbicidal action against AVEFA; assay type: in vivo, Avena fatua; conditions: Avena fatua, 504 h, 20 g/ha, visual assessment about 3 weeks after treatment, 100% = plants have died, 0% = like control plants
Summary of the method: as §1

AMARE [15] = assay: Pre-emergence herbicidal action against AMARE; assay type: in vivo, Amaranthus retroflexus; conditions: Amaranthus retroflexus, 504 h, scored visually after 3 weeks vs untreated controls, 100% = plants have died, 0% = like control plants
Summary of the method: as §2

ABUTH [16] = assay: Post-emergence herbicidal action against ABUTH; assay type: in vivo, Abutilon theophrasti; conditions: Abutilon theophrasti, 504 h, visual assessment about 3 weeks after treatment vs untreated controls
Summary of the method: as §1

STEME [17] = assay: Post-emergence herbicidal action against STEME; assay type: in vivo, Stellaria media; conditions: Stellaria media, 504 h, 20 g/ha
Summary of the method: as §1

PHBPU [18] = assay: Post-emergence herbicidal action against PHBPU; assay type: in vivo, Pharbitis purpurea; conditions: Ipomoea purpurea, 504 h
Summary of the method: as §1

MATIN [19] = assay: Pre-emergence herbicidal action against MATIN; assay type: in vivo, Matricaria inodora; conditions: Tripleurospermum inodorum, 504 h
Summary of the method: as §2

MATIN [20] = assay: Post-emergence herbicidal action against MATIN; assay type: in vivo, Matricaria inodora; conditions: Tripleurospermum inodorum, 504 h, dosage 20 g/ha
Summary of the method: as §1

VERPE [21] = assay: Post-emergence herbicidal action against VERPE; assay type: in vivo, Veronica persica; conditions: Veronica persica, 504 h, 20 g/ha
Summary of the method: as §1

ECHCG [22] = assay: Pre-emergence herbicidal action against ECHCG; assay type: in vivo, Echinochloa crus-galli; conditions: Echinochloa crus-galli, 504 h, 80 g/ha
Summary of the method: as §2

VIOTR [23] = assay: Pre-emergence herbicidal action against VIOTR; assay type: in vivo, Viola tricolor; conditions: Viola tricolor, 504 h
Summary of the method: as §2

AVEFA [24] = assay: Pre-emergence herbicidal action against AVEFA; assay type: in vivo, Avena fatua; conditions: Avena fatua, 504 h; 80 g/ha, pre-emergence
Summary of the method: as §2

SMILES: Cc1c(C(=O)Nc2nnnn2C)ccc(C(F)F)c1C(=O)NC1CC1 [Example 1-46]
- pest or weed control at 5 g/ha (ECHCG [1]; dosage 5 g/ha): 80%
- pest or weed control at 20 g/ha (ECHCG [1]; dosage 20 g/ha): 80%
- pest or weed control at 80 g/ha (VERPE [2]): 90%
- pest or weed control at 80 g/ha (POLCO): 80%
- pest or weed control at 5 g/ha (DIGSA [3]; 5 g/ha): 80%
- pest or weed control at 20 g/ha (DIGSA [3]; 20 g/ha): 80%
- pest or weed control at 80 g/ha (SETVI [4]): 100%
- pest or weed control at 20 g/ha (STEME [5]; dosage 20 g/ha): 90%
- pest or weed control at 80 g/ha (STEME [5]; dosage 80 g/ha): 100%
- pest or weed control at 80 g/ha (PHBPU [6]): 80%
- pest or weed control at 80 g/ha (ALOMY [7]): 90%
- pest or weed control at 20 g/ha (ALOMY [8]): 90%
- pest or weed control at 20 g/ha (SETVI [9]): 80%
- pest or weed control at 80 g/ha (LOLRI): 90%
- pest or weed control at 20 g/ha (DIGSA [10]; dosage 20 g/ha): 90%
- pest or weed control at 80 g/ha (DIGSA [10]; dosage 80 g/ha): 100%
- pest or weed control at 5 g/ha (VIOTR [11]; 5 g/ha): 80%
- pest or weed control at 20 g/ha (VIOTR [11]; 20 g/ha): 80%
- pest or weed control at 20 g/ha (AMARE [12]): 100%
- pest or weed control at 80 g/ha (ABUTH [13]; 80 g/ha, scored visually after 3 weeks vs untreated controls (100% = plants have died, 0% = like control plants)): 100%
- pest or weed control at 20 g/ha (ABUTH [13]; dosage 20 g/ha, scored visually after 3 weeks vs untreated controls, 100% = plants have died, 0% = like control plants, read-out: Pre-emergence action against ABUTH (herbicidal activity in percent)): 90%
- pest or weed control at 20 g/ha (AVEFA [14]): 80%
- pest or weed control at 20 g/ha (AMARE [15]; 20 g/ha): 100%
- pest or weed control at 80 g/ha (AMARE [15]; 80 g/ha): 100%
- pest or weed control at 5 g/ha (ABUTH [16]; dosage 5 g/ha): 90%
- pest or weed control at 20 g/ha (ABUTH [16]; dosage 20 g/ha): 90%
- pest or weed control at 20 g/ha (STEME [17]): 80%
- pest or weed control at 5 g/ha (PHBPU [18]; dosage 5 g/ha): 80%
- pest or weed control at 20 g/ha (PHBPU [18]; dosage 20 g/ha): 80%
- pest or weed control at 20 g/ha (MATIN [19]; dosage 20 g/ha): 90%
- pest or weed control at 80 g/ha (MATIN [19]; dosage 80 g/ha): 100%
- pest or weed control at 20 g/ha (MATIN [20]): 80%
- pest or weed control at 20 g/ha (VERPE [21]): 90%
- pest or weed control at 80 g/ha (ECHCG [22]): 80%
- pest or weed control at 20 g/ha (VIOTR [23]; dosage 20 g/ha): 90%
- pest or weed control at 80 g/ha (VIOTR [23]; dosage 80 g/ha): 100%
- pest or weed control at 80 g/ha (AVEFA [24]): 100%
